This assay deals with glucose-6-phosphate dehydrogenase-6-phosphogluconolactonase (Plasmodium falciparum 3D7). Description: PfG6PD inhibitor potency, dose response, biochemical, fluorescence intensity (AID 504765). Particulars: Recombinant PfG6PD enzyme, fluorescence intensity (NADPH).

Active and inactive are the calls of the source. How the calls were made is not given here.

Regarding `Cc1cccc(OCC(=O)NCC(=O)N/N=C/c2ccccc2)c1`, the IC50 was 9.37 µM.

On to `Cc1ccc(/C=C/C(=O)NC2CCCCCCC2)o1`, for which the IC50 is 9.66 µM.

For `Cc1cc(C)c2c(=O)n(CC(=O)NC3CCCC3)sc2n1`, the IC50 was 1.97 µM.

`O=[N+]([O-])c1cccc(SSc2cccc([N+](=O)[O-])c2)c1`: the IC50 is 7.67 µM.

Take `Cc1noc(C(=O)Nc2sc3c(c2C#N)CCC3)c1Cl`: the IC50 was 4.83 µM.

As to `COc1cc(-c2cc(OC)c(O)c(OC)c2)cc(OC)c1O`, the IC50 was 8.29 µM.

In the case of `CN1C(=O)CSc2ccc(NC(=O)N3CCc4ccccc43)cc21`, the IC50 is 15.2 µM.

Turning to `CN(CCO)c1cc(Sc2nc3ccccc3s2)c2nonc2c1[N+](=O)[O-]`, the IC50 was 11.1 µM.

In the case of `COc1c2ccoc2c(OCC=C(C)C)c2oc(=O)ccc12`, the IC50 entry was “inactive”.

As to `O=C1Nc2ccccc2C(=O)C1(Cl)Cc1ccccc1` (stereo not drawn), the IC50 was 9.57 µM.

For the compound `COc1ccc(C(=O)ON=C2C=C(C)C(=O)C(C)=C2)cc1`, the IC50 result is “inactive”.

For the compound `Cc1ccc(S(=O)c2ccc([N+](=O)[O-])c3nonc23)cc1` (stereo not drawn), the IC50 was 8.19 µM.

As for `O=C(O)C(Cc1ccccc1)N1C(=O)C=CC1=O` (stereo not drawn), the IC50 was 6.01 µM.

In the case of `O=C(O)c1cc(N2C(=O)C=CC2=O)cc(N2C(=O)C=CC2=O)c1`, the IC50 is 4.34 µM.

Take `NC1CCc2cc(O)c(O)cc2C1` (stereo not drawn): the IC50 entry was “inactive”.

Consider `O=C(O)c1ccc(-n2c(-c3cc(-c4ccco4)[nH]n3)n[nH]c2=S)cc1`, for which the IC50 entry was “inactive”.

Take `Cc1cc(C(=O)O)ccc1-n1c(C)cc(C=C2C(=O)c3ccccc3C2=O)c1C`: the IC50 was 7.14 µM.

For `Cc1ccc(S(=O)(=O)/N=C2/C=C(C3C(=O)CC(C)(C)CC3=O)C(=O)c3ccccc32)cc1`, the IC50 is 14.1 µM.

As for `COc1cc(O)c(C(=O)O)c(-c2cc(O)c(O)cc2C)c1`, the IC50 was 3.75 µM.

Turning to `CCC(=O)OCOc1ccc(/C=C2/CCC(CN(C)C)C2=O)cc1` (stereo not drawn), the IC50 was 6.86 µM.

For `CC(=NNC(=S)N1CCN(c2ccccn2)CC1)c1nccs1`, the half-inhibitory concentration (IC50) is 5.6 µM.

With `Cc1cccc(C(=O)Nc2nnc(S(=O)(=O)N3CCOCC3)s2)c1`, the IC50 was 7.44 µM.

Regarding `Cc1ccc(S(=O)(=O)Oc2cccc(/C=N/Nc3ccc(C(=O)O)cc3)c2)cc1`, the IC50 is 7.01 µM.

Consider `O=C(OCC(=O)c1ccc([N+](=O)[O-])cc1)/C(=C\c1ccc(Cl)cc1)NC(=O)c1ccccc1`, for which the IC50 entry was “inactive”.

For the compound `Cc1ccc(S(=O)(=O)SC/C=C/CSS(=O)(=O)c2ccc(C)cc2)cc1`, the IC50 was 10.3 µM.

With `COc1ccc(NS(=O)(=O)c2ccc(N3CCCC3)c(NC(=S)Nc3cccc(C)c3C)c2)cc1`, the IC50 entry was “inactive”.

`COc1cc(-c2cc(=O)c3c(O)c(OC)c(OC)c(O)c3o2)ccc1O`: the IC50 was 8.95 µM.

Consider `COc1cc(/C=C2\SC(c3ccc(C)cc3)=NC2=O)ccc1O`, for which the IC50 was 8.7 µM.

As for `COc1cccc(C=Nc2cc(C(C)C)c(O)cc2C)c1O`, the IC50 is 5.48 µM.

On to `Cc1cccc(C(=O)Nc2nnc(S(=O)(=O)N3CCCCCC3)s2)c1`, for which the IC50 is 6.58 µM.

On to `O=c1ccsn1Cc1ccccc1`, for which the IC50 was 2.29 µM.

In the case of `COC(=O)c1cc2c(n1S(=O)(=O)c1ccc(C)cc1)C(=O)C(=O)c1[nH]cc(C(=O)OCc3ccccc3)c1-2`, the IC50 is 15.8 µM.

Take `C=CCOc1ccc(CNc2ccc3[nH]c(=O)[nH]c3c2)cc1OC`: the IC50 is 6.61 µM.

Regarding `Clc1ccc2nc(-c3ccc(Br)s3)cn2c1`, the IC50 was 8.89 µM.

Regarding `Cc1nc2c(o1)C(=O)c1ccccc1C2=Nc1ccccc1`, the IC50 was 7 µM.

Regarding `NS(=O)(=O)c1ccc(-c2ccc(C=C3C(=O)NC(=O)NC3=O)o2)cc1`, the IC50 was 3.14 µM.

For the compound `CCn1c(N)c(C(=O)NC)sc1=S`, the IC50 result was “inactive”.

As to `COc1cccc(C(=O)Nc2nnc(S(=O)(=O)N(C)Cc3ccccc3)s2)c1`, the IC50 is 4.04 µM.

Take `COC(=O)[C@H](CCSC)NC(=O)c1cc2c(cn1)[nH]c1ccccc12`: the IC50 result was “inactive”.

Take `N#Cc1ccc2c(=O)n(-c3ccccc3)sc2c1`: the IC50 is 3.86 µM.

Turning to `O=C(Nc1nnc(S(=O)(=O)N2CCCCC2)s1)c1cccc(Br)c1`, the IC50 is 6.37 µM.

Consider `COCCn1nnnc1C(c1cc2cc(OC)c(OC)cc2[nH]c1=O)N1CCN(c2ccc(O)cc2)CC1` (stereo not drawn), for which the IC50 entry is “inactive”.

In the case of `OCCN1CCN(C(=S)c2ccc(-c3ccccc3)cc2)CC1`, the IC50 is 19.6 µM.

With `CC(C)(C)c1ccc(C(=O)Nc2sc3c(c2C(=O)O)CCC3)cc1`, the IC50 was 12.7 µM.

For the compound `CCN1CCCC1CNC(=O)c1ccc2c(c1)NC(=O)/C(=C\c1ccc(C)cc1)S2` (stereo not drawn), the IC50 was 3.16 µM.

As to `O=S(=O)(Nc1c(O)ccc2ccccc12)c1ccccc1`, the IC50 was 4.49 µM.

Consider `O=C(Cn1sc2ccccc2c1=O)Nc1ccc(F)cc1`, for which the IC50 is 2.56 µM.

For the compound `COC1=CC(=O)C=C(OC)C1(O)CC(C)=O`, the IC50 is 5.91 µM.

Turning to `CN=c1nc(-c2ccccc2)n(-c2ccccc2)s1`, the IC50 was 4.82 µM.

For `Cc1ccc(-c2c(C(=O)N/N=C/c3ccc(C)o3)nnn2-c2nonc2N)cc1`, the IC50 is 1.43 µM.

With `CC(C)c1nnc(NC(=O)c2cc3ccccc3o2)s1`, the IC50 was 16.5 µM.

As for `S=c1ncc2[nH]c(=S)[nH]c2[nH]1`, the IC50 is 4.41 µM.

`O=C(NCCCN1CCOCC1)c1sc2cc([N+](=O)[O-])ccc2c1Cl`: the IC50 is 6.75 µM.

Turning to `CC(C)c1nnc(NC(=O)c2cccc(-n3cnnn3)c2)s1`, the IC50 is 5.55 µM.

In the case of `CN(C)c1nc(=NCc2cccs2)ss1`, the IC50 is 11.9 µM.

As for `CC(=O)OCC1(C)CN(c2ccccc2)NC1=O` (stereo not drawn), the IC50 is 5.19 µM.

Turning to `CN(C)c1ccc(C=c2c3ccccc3n3c2c2ccccc2[n+]3C)cc1`, the IC50 is 16 µM.

As to `CCC1(CC)Cc2ccccc2C(N)=C1C#N`, the IC50 result was “inactive”.

Take `CCN1CCN(C(=S)c2ccc(O)cc2)CC1`: the IC50 entry is “inactive”.

As for `CCOc1ccc(CNc2ccc(N3CCCC3)cc2)cc1`, the IC50 is 2.64 µM.

As to `Cc1ccc(Cl)cc1NC1=C/C(=N\S(=O)(=O)c2cccs2)c2ccccc2C1=O`, the IC50 result was “inactive”.

Consider `O=C(Nc1ccc([N+](=O)[O-])cc1Cl)c1cc(Cl)ccc1O`, for which the IC50 is 13.7 µM.

With `Cc1ccc(NC(=O)c2cc(N3C(=O)C=CC3=O)ccc2Cl)cc1C`, the IC50 is 14.1 µM.

Take `CC1(C)Nc2ccc(O)cc2-c2c1ssc2=S`: the IC50 entry is “inactive”.

On to `CC(NC(=O)c1sc2cc([N+](=O)[O-])ccc2c1Cl)C(C)(C)C` (stereo not drawn), for which the IC50 was 18.5 µM.

Regarding `Cn1c(=O)c2c([nH]c(=S)n2CCCc2ccccc2)n(C)c1=O`, the IC50 is 19.5 µM.

In the case of `Cc1ccc(S(=O)(=O)NNc2ccccc2)cc1`, the IC50 entry was “inactive”.

On to `Cc1cc(C)c(NC(=S)NCC2CCN(C(C)c3ccccc3)C2)c(C)c1` (stereo not drawn), for which the IC50 was 14.8 µM.

For `Clc1cccc(Cl)c1CNc1ccc(N2CCCC2)cc1`, the IC50 is 3.79 µM.

For `Nc1[nH]c(=O)[nH]c(=O)c1N=Cc1ccccc1`, the IC50 is 3.29 µM.

As for `C=CCN=c1scc(-c2ccco2)n1/N=C/c1ccc(O)c(O)c1O`, the IC50 result is “inactive”.

Turning to `Cc1ccc(-c2nn(C)c(=O)c3ccccc23)cc1CNC(=O)/C=C/c1ccccc1`, the IC50 is 4.14 µM.

With `NNC(=O)CN1C(c2ccccc2Br)=Nc2ccc(Br)cc2C1c1ccccc1` (stereo not drawn), the IC50 was 3.38 µM.

A word on the IC50: it is the midpoint of a concentration-inhibition curve.

Values taken from PubChem BioAssay AID504765 (Sanford-Burnham Center for Chemical Genomics, 2011).
